# ChEMBL document CHEMBL4619795, “Establishing the Structure-Activity Relationship of Daptomycin” (ACS Med Chem Lett, 2020)
# Columns and labels:
# Type in all cases: functional
# Staphylococcus aureus [1] = assay: Antibacterial activity against methicillin-resistant Staphylococcus aureus 86 assessed as bacterial growth inhibition in presence of 50 ug/ml calcium ions by CLSI protocol based broth microdilution method
# Enterococcus faecalis [2] = assay: Antibacterial activity against Streptococcus faecalis assessed as bacterial growth inhibition in presence of 50 ug/ml calcium ions by CLSI protocol based broth microdilution method
# Enterococcus faecalis [3] = assay: Antibacterial activity against Enterococcus faecalis ATCC 29212 assessed as bacterial growth inhibition in presence of 50 ug/ml calcium ions by CLSI protocol based broth microdilution method
# Staphylococcus aureus [4] = assay: Antibacterial activity against methicillin-resistant Staphylococcus aureus 14 assessed as bacterial growth inhibition in presence of 50 ug/ml calcium ions by CLSI protocol based broth microdilution method
# Staphylococcus aureus [5] = assay: Antibacterial activity against Staphylococcus aureus ATCC 29213 assessed as bacterial growth inhibition in presence of 50 ug/ml calcium ions by CLSI protocol based broth microdilution method
# Enterococcus [6] = assay: Antibacterial activity against Enterococcus 60 assessed as bacterial growth inhibition in presence of 50 ug/ml calcium ions by CLSI protocol based broth microdilution method
# Enterococcus [7] = assay: Antibacterial activity against Enterococcus 6 assessed as bacterial growth inhibition in presence of 50 ug/ml calcium ions by CLSI protocol based broth microdilution method
# Staphylococcus aureus [8] = assay: Antibacterial activity against methicillin-resistant Staphylococcus aureus 11 assessed as bacterial growth inhibition in presence of 50 ug/ml calcium ions by CLSI protocol based broth microdilution method
# Staphylococcus aureus [9] = assay: Antibacterial activity against methicillin-resistant Staphylococcus aureus 88 assessed as bacterial growth inhibition in presence of 50 ug/ml calcium ions by CLSI protocol based broth microdilution method
Structure (SMILES),MIC (Staphylococcus aureus [1]) [µg/mL],MIC (Enterococcus faecalis [2]) [µg/mL],MIC (Enterococcus faecalis [3]) [µg/mL],MIC (Staphylococcus aureus [4]) [µg/mL],MIC (Staphylococcus aureus [5]) [µg/mL],MIC (Enterococcus [6]) [µg/mL],MIC (Enterococcus [7]) [µg/mL],MIC (Staphylococcus aureus [8]) [µg/mL],MIC (Staphylococcus aureus [9]) [µg/mL]
CCCCCCCCCC(=O)N[C@@H](Cc1c[nH]c2ccccc12)C(=O)N[C@@H](CC(N)=O)C(=O)N[C@@H](CC(=O)O)C(=O)N[C@@H]1C(=O)NCC(=O)N[C@@H](CCCN)C(=O)N[C@@H](CC(=O)O)C(=O)N[C@H](C)C(=O)N[C@@H](CC(=O)O)C(=O)NCC(=O)N[C@H](CO)C(=O)N[C@@H](C)C(=O)N[C@@H](CC(=O)c2ccccc2N)C(=O)O[C@@H]1C,≥ 64,≥ 64,≥ 64,≥ 64,≥ 64,≥ 64,≥ 64,≥ 64,≥ 64
CCCCCCCCCC(=O)N[C@@H](Cc1c[nH]c2ccccc12)C(=O)N[C@@H](CC(N)=O)C(=O)N[C@@H](CC(=O)O)C(=O)N[C@@H]1C(=O)NCC(=O)N[C@@H](CSSC[C@@H]2NC(=O)CNC(=O)[C@@H](NC(=O)[C@H](CC(=O)O)NC(=O)[C@H](CC(N)=O)NC(=O)[C@H](Cc3c[nH]c4ccccc34)NC(=O)CCCCCCCCC)[C@@H](C)OC(=O)[C@H](CC(=O)c3ccccc3N)NC(=O)[C@H]([C@@H](C)CC(=O)O)NC(=O)[C@@H](CO)NC(=O)CNC(=O)[C@H](CC(=O)O)NC(=O)[C@@H](C)NC(=O)[C@H](CC(=O)O)NC2=O)C(=O)N[C@@H](CC(=O)O)C(=O)N[C@H](C)C(=O)N[C@@H](CC(=O)O)C(=O)NCC(=O)N[C@H](CO)C(=O)N[C@@H]([C@@H](C)CC(=O)O)C(=O)N[C@@H](CC(=O)c2ccccc2N)C(=O)O[C@@H]1C,8,4,16,4,16,16,16,8,16
CCCCCCCCCC(=O)N[C@@H](Cc1c[nH]c2ccccc12)C(=O)N[C@@H](CC(N)=O)C(=O)N[C@@H](CC(=O)O)C(=O)N[C@@H]1C(=O)NCC(=O)N[C@@H](CCCNC(=N)N)C(=O)N[C@@H](CC(=O)O)C(=O)N[C@H](C)C(=O)N[C@@H](CC(=O)O)C(=O)NCC(=O)N[C@H](CO)C(=O)N[C@@H]([C@@H](C)CC(=O)O)C(=O)N[C@@H](CC(=O)c2ccccc2N)C(=O)O[C@@H]1C,2,8,≥ 32,16,2,16,32,8,1
CCCCCCCCCC(=O)N[C@@H](Cc1c[nH]c2ccccc12)C(=O)N[C@@H](CC(N)=O)C(=O)N[C@@H](CC(=O)O)C(=O)N[C@@H]1C(=O)NCC(=O)N[C@@H](CCCN)C(=O)N[C@@H](C)C(=O)N[C@H](C)C(=O)N[C@@H](CC(=O)O)C(=O)NCC(=O)N[C@H](CO)C(=O)N[C@@H]([C@@H](C)CC(=O)O)C(=O)N[C@@H](CC(=O)c2ccccc2N)C(=O)O[C@@H]1C,≥ 64,≥ 64,≥ 64,≥ 64,≥ 64,≥ 64,≥ 64,≥ 64,≥ 64
CCCCCCCCCC(=O)N[C@@H](Cc1c[nH]c2ccccc12)C(=O)N[C@@H](CC(N)=O)C(=O)N[C@@H](CC(=O)O)C(=O)N[C@@H]1C(=O)NCC(=O)N[C@@H](CCCCN)C(=O)N[C@@H](CC(=O)O)C(=O)N[C@H](C)C(=O)N[C@@H](CC(=O)O)C(=O)NCC(=O)N[C@H](CO)C(=O)N[C@@H]([C@@H](C)CC(=O)O)C(=O)N[C@@H](CC(=O)c2ccccc2N)C(=O)O[C@@H]1C,1,8,≥ 32,≥ 32,1,16,≥ 32,16,1
CCCCCCCCCC(=O)N[C@@H](Cc1c[nH]c2ccccc12)C(=O)N[C@@H](CC(N)=O)C(=O)N[C@@H](CC(=O)O)C(=O)N[C@@H]1C(=O)NCC(=O)NCC(=O)N[C@@H](CC(=O)O)C(=O)N[C@H](C)C(=O)N[C@@H](CC(=O)O)C(=O)NCC(=O)N[C@H](CO)C(=O)N[C@@H]([C@@H](C)CC(=O)O)C(=O)N[C@@H](CC(=O)c2ccccc2N)C(=O)O[C@@H]1C,≥ 32,≥ 32,≥ 32,≥ 32,≥ 32,≥ 32,≥ 32,≥ 32,≥ 32
CCCCCCCCCC(=O)N[C@@H](Cc1c[nH]c2ccccc12)C(=O)N[C@@H](CC(N)=O)C(=O)N[C@@H](CC(=O)O)C(=O)N[C@@H]1C(=O)NCC(=O)N[C@@H](Cc2ccc(O)cc2)C(=O)N[C@@H](CC(=O)O)C(=O)N[C@H](C)C(=O)N[C@@H](CC(=O)O)C(=O)NCC(=O)N[C@H](CO)C(=O)N[C@@H]([C@@H](C)CC(=O)O)C(=O)N[C@@H](CC(=O)c2ccccc2N)C(=O)O[C@@H]1C,4,≥ 32,≥ 32,0.5,1,16,≥ 32,1,4
CCCCCCCCCC(=O)N[C@@H](Cc1c[nH]c2ccccc12)C(=O)N[C@@H](CC(N)=O)C(=O)N[C@@H](CC(=O)O)C(=O)N[C@@H]1C(=O)NCC(=O)N[C@@H](CCCN)C(=O)N[C@@H](CC(=O)O)C(=O)N[C@H](C)C(=O)N[C@@H](CC(=O)O)C(=O)NCC(=O)N[C@H](CO)C(=O)N[C@@H]([C@@H](C)CC(=O)O)C(=O)N[C@@H](C)C(=O)O[C@@H]1C,≥ 32,≥ 32,≥ 32,≥ 32,≥ 32,≥ 32,≥ 32,≥ 32,≥ 32
CCCCCCCCCC(=O)N[C@@H](Cc1c[nH]c2ccccc12)C(=O)N[C@@H](CC(N)=O)C(=O)N[C@@H](CC(=O)O)C(=O)N[C@@H]1C(=O)NCC(=O)N[C@@H](Cc2c[nH]c3ccccc23)C(=O)N[C@@H](CC(=O)O)C(=O)N[C@H](C)C(=O)N[C@@H](CC(=O)O)C(=O)NCC(=O)N[C@H](CO)C(=O)N[C@@H]([C@@H](C)CC(=O)O)C(=O)N[C@@H](CC(=O)c2ccccc2N)C(=O)O[C@@H]1C,4,2,≥ 32,1,4,≥ 32,≥ 32,2,2
CCCCCCCCCC(=O)N[C@@H](Cc1c[nH]c2ccccc12)C(=O)N[C@@H](CC(N)=O)C(=O)N[C@@H](CC(=O)O)C(=O)N[C@@H]1C(=O)NCC(=O)N[C@@H]([C@@H](C)O)C(=O)N[C@@H](CC(=O)O)C(=O)N[C@H](C)C(=O)N[C@@H](CC(=O)O)C(=O)NCC(=O)N[C@H](CO)C(=O)N[C@@H]([C@@H](C)CC(=O)O)C(=O)N[C@@H](CC(=O)c2ccccc2N)C(=O)O[C@@H]1C,2,≥ 32,≥ 32,16,2,≥ 32,≥ 32,16,2
CCCCCCCCCC(=O)N[C@@H](Cc1ccc2ccccc2c1)C(=O)N[C@@H](CC(N)=O)C(=O)N[C@@H](CC(=O)O)C(=O)N[C@@H]1C(=O)NCC(=O)N[C@@H](CCCN)C(=O)N[C@@H](CC(=O)O)C(=O)N[C@H](C)C(=O)N[C@@H](CC(=O)O)C(=O)NCC(=O)N[C@H](CO)C(=O)N[C@@H]([C@@H](C)CC(=O)O)C(=O)N[C@@H](CC(=O)c2ccccc2N)C(=O)O[C@@H]1C,0.06,0.25,1,0.125,0.25,0.5,4,0.5,0.125
